Test results as given in EP4667483A1, “HUMAN TRANSFERRIN RECEPTOR-BINDING PEPTIDE” (JCR Pharmaceuticals Co., Ltd., priority 2023, dated 2024).
Numbered stars: 1 amine (or outer) side, 2 acyl side, 3 side chain; on linkers, the order of the positions; unused ones are H or OH. Bridge positions count the residues as written; N and C are the ends. Square brackets hold non-standard residues; d marks the D form. Side chains are listed from the residue outwards. Peptide text beside a SMILES is read from it. * marks the point of attachment. Trp(1-CH2COOH) = N[C@@H](Cc1cn(CC(=O)O)c2ccccc12)C(=O)O; CH2CON(CH2CH2)2NCH2COOH = O=C(O)CN1CCN(C(=O)C*)CC1; NMePhe(4-COOH) = CN[C@@H](Cc1ccc(C(=O)O)cc1)C(=O)O; X1 = O=C([C@H](Cc1cccc(C(=O)[*:3])c1)N[*:1])[*:2]; Nle(6-morpholino) = N[C@@H](CCCCN1CCOCC1)C(=O)O; Phe(3-COOH) = N[C@@H](Cc1cccc(C(=O)O)c1)C(=O)O; Trp(7-aza) = N[C@@H](Cc1c[nH]c2ncccc12)C(=O)O; NH(CH2CH2O)8Me = COCCOCCOCCOCCOCCOCCOCCOCCN*; NMePhe(3-Cl) = CN[C@@H](Cc1cccc(Cl)c1)C(=O)O; Piperazinyl(4-CH2COOH) = O=C(O)CN1CCN(*)CC1; 3Pal(6-NH2) = Nc1ccc(C[C@H](N)C(=O)O)cn1; NMeY = CN[C@@H](Cc1ccc(O)cc1)C(=O)O; Nva(3-Et) = CCC(CC)[C@H](N)C(=O)O; 4Pal = N[C@@H](Cc1ccncc1)C(=O)O; PEG4 = NCCOCCOCCOCCOCCC(=O)O; Carboxymethyl = O=C(O)C*; CO = O=C([*:1])[*:2]

Experiments:
[1] = molecular target: T1, human transferrin receptor (hTfR) (Homo sapiens, UniProt P02786); assay: SPR measurement under pH 7.4 conditions (Biacore T200, CM3 chip, hTfR captured by His Tag antibody); assay type: binding; details: pH 7.4, single-cycle kinetics; read-out: hTfR SPR pH7.4 KD
T1 sequence (P02786 whole entry): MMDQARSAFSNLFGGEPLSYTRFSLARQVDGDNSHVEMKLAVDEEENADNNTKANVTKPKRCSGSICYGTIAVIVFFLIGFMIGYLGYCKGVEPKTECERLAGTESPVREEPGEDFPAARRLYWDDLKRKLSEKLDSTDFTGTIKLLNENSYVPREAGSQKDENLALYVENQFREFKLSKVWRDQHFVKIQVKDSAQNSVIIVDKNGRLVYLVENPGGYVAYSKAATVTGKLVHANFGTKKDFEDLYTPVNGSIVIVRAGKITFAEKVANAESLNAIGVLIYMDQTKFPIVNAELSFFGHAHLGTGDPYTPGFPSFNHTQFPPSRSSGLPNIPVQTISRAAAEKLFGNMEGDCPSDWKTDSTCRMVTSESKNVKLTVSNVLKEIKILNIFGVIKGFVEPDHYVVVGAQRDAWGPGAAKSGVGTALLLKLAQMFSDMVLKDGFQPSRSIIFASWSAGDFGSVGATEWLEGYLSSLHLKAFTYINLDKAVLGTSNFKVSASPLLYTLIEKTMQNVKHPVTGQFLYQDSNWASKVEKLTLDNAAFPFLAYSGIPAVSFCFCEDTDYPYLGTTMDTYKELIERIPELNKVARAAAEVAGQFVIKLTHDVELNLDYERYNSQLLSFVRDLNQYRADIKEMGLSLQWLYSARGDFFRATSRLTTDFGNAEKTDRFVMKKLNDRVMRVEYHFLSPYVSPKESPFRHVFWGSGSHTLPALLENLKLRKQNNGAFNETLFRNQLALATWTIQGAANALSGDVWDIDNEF

[2] = molecular target: T1, human transferrin receptor (hTfR); assay: SPR measurement under pH 6.0 conditions (Biacore T200, NTA chip, immobilized hTfR); assay type: binding; details: pH 6.0, single-cycle kinetics; read-out: hTfR SPR pH6.0 KD

SMILES	Kd [1]	Kd [2]
CC[C@H](C)[C@@H]1NC(=O)[C@H](Cc2ccc(OCC(=O)N3CCN(CC(=O)O)CC3)cc2)NC(=O)[C@H](Cc2ccc(O)cc2)NC(=O)[C@H](CC(N)=O)NC(=O)[C@H](Cc2cn(CC(=O)O)c3ccccc23)NC(=O)[C@H](C(C)C)NC(=O)[C@H](Cc2cccc(Cl)c2)N(C)C(=O)[C@H](C(C)C)NC(=O)[C@H](C)NC(=O)CSC[C@@H](C(=O)NCCOCCOCCOCCOCCC(N)=O)NC(=O)[C@H](Cc2ccc(O)cc2)N(C)C(=O)[C@H](Cc2ccncc2)NC(=O)[C@H](CCCCN2CCOCC2)NC(=O)[C@H](CCCCNC(=O)N2CCN(CC(=O)O)CC2)NC(=O)[C@H]([C@@H](C)CC)NC1=O [compound 33] ({CH2CO}-AV[NMePhe(3-Cl)]V[Trp(1-CH2COOH)]NYY(CH2CON(CH2CH2)2NCH2COOH)IIK([CO-Piperazinyl(4-CH2COOH)])[Nle(6-morpholino)][4Pal][NMeY]C[PEG4]-NH2; thioether N-15)	8.5 nM	22.1 nM
CC[C@H](C)[C@@H]1NC(=O)[C@H](Cc2ccc(OCC(=O)N3CCN(CC(=O)O)CC3)cc2)NC(=O)[C@H](Cc2ccc(O)cc2)NC(=O)[C@H](CC(N)=O)NC(=O)[C@H](Cc2cn(CC(=O)O)c3ccccc23)NC(=O)[C@H](C(C)C)NC(=O)[C@H](Cc2cccc(Cl)c2)N(C)C(=O)[C@H](C(C)C)NC(=O)[C@H](C)NC(=O)CSC[C@@H](C(=O)NCCOCCOCCOCCOCCC(N)=O)NC(=O)[C@H](Cc2ccc(O)cc2)N(C)C(=O)[C@H](Cc2ccncc2)NC(=O)[C@H](CCCNC(=N)N)NC(=O)[C@H](CCCCNC(=O)N2CCN(CC(=O)O)CC2)NC(=O)[C@H]([C@@H](C)CC)NC1=O [compound 34]	5.22 nM	14.9 nM
CC[C@H](C)[C@@H]1NC(=O)[C@H](Cc2ccc(OCC(=O)N3CCN(CC(=O)O)CC3)cc2)NC(=O)[C@H](Cc2ccc(O)cc2)NC(=O)[C@H](CC(N)=O)NC(=O)[C@H](Cc2cn(CC(=O)O)c3ccccc23)NC(=O)[C@H](C(C)C)NC(=O)[C@H](Cc2cccc(Cl)c2)N(C)C(=O)[C@H](C(C)C)NC(=O)[C@H](C)NC(=O)CSC[C@@H](C(=O)NCCOCCOCCOCCOCCC(N)=O)NC(=O)[C@H](Cc2ccc(O)cc2)N(C)C(=O)[C@H](Cc2cccc(C(=O)O)c2)NC(=O)[C@H](CCCCN2CCOCC2)NC(=O)[C@H](CCC(N)=O)NC(=O)[C@H]([C@@H](C)CC)NC1=O [compound 35] ({CH2CO}-AV[NMePhe(3-Cl)]V[Trp(1-CH2COOH)]NYY(CH2CON(CH2CH2)2NCH2COOH)IIQ[Nle(6-morpholino)][Phe(3-COOH)][NMeY]C[PEG4]-NH2; thioether N-15)	1.74 nM	37 nM
CC[C@H](C)[C@@H]1NC(=O)[C@H](Cc2ccc(OCC(=O)N3CCN(CC(=O)O)CC3)cc2)NC(=O)[C@H](Cc2ccc(O)cc2)NC(=O)[C@H](CC(N)=O)NC(=O)[C@H](Cc2cn(CC(=O)O)c3ccccc23)NC(=O)[C@H](C(C)C)NC(=O)[C@H](Cc2cccc(Cl)c2)N(C)C(=O)[C@H](C(C)C)NC(=O)[C@H](C)NC(=O)CSC[C@@H](C(=O)NCCOCCOCCOCCOCCC(N)=O)NC(=O)[C@H](Cc2ccc(O)cc2)N(C)C(=O)[C@H](Cc2cccc(C(=O)O)c2)NC(=O)[C@H](CCCNC(=N)N)NC(=O)[C@H](CCC(N)=O)NC(=O)[C@H]([C@@H](C)CC)NC1=O [compound 36]	2.47 nM	44 nM
CC[C@H](C)[C@@H]1NC(=O)[C@H](Cc2ccc(OCC(=O)N3CCN(CC(=O)O)CC3)cc2)NC(=O)[C@H](Cc2ccc(O)cc2)NC(=O)[C@H](CC(N)=O)NC(=O)[C@H](Cc2cn(CC(=O)O)c3ccccc23)NC(=O)[C@H](C(C)C)NC(=O)[C@H](Cc2cccc(Cl)c2)N(C)C(=O)[C@H](C(C)C)NC(=O)[C@H](C)NC(=O)CSC[C@@H](C(=O)NCCOCCOCCOCCOCCC(N)=O)NC(=O)[C@H](Cc2ccc(O)cc2)N(C)C(=O)[C@H](Cc2ccncc2)NC(=O)[C@H](CCCCN2CCOCC2)NC(=O)[C@H](CCC(=O)NC[C@H](O)[C@@H](O)[C@H](O)[C@H](O)CO)NC(=O)[C@H]([C@@H](C)CC)NC1=O [compound 40]	43.8 nM	42.6 nM

Other lines, results leading:

Kd [1]	Kd [2]	SMILES
14.5 nM	91.4 nM	CC[C@H](C)[C@@H]1NC(=O)[C@H](Cc2ccc(OCCNC(=O)N3CCN(CC(=O)O)CC3)cc2)NC(=O)[C@H](Cc2ccc(O)cc2)NC(=O)[C@H](CC(N)=O)NC(=O)[C@H](Cc2cn(CC(=O)O)c3ccccc23)NC(=O)[C@H](C(C)C)NC(=O)[C@H](Cc2cccc(Cl)c2)N(C)C(=O)[C@H](C(C)C)NC(=O)[C@H](C)NC(=O)CSC[C@@H](C(=O)NCCOCCOCCOCCOCCC(N)=O)NC(=O)[C@H](Cc2ccc(O)cc2)N(C)C(=O)[C@H](Cc2ccncc2)NC(=O)[C@H](CCCCN2CCOCC2)NC(=O)[C@H](CCC(=O)NCCOCCOCCOCCOCCOCCOCCOCCOC)NC(=O)[C@H]([C@@H](C)CC)NC1=O [compound 41]
5.11 nM	34.4 nM	CC[C@H](C)[C@@H]1NC(=O)[C@H](Cc2ccc(OCC(=O)N3CCN(CC(=O)O)CC3)cc2)NC(=O)[C@H](Cc2ccc(O)cc2)NC(=O)[C@H](CC(N)=O)NC(=O)[C@H](Cc2c[nH]c3ncccc23)NC(=O)[C@H](C(C)C)NC(=O)[C@H](Cc2cccc(Cl)c2)N(C)C(=O)[C@H](C(C)C)NC(=O)[C@H](C)NC(=O)CSC[C@@H](C(=O)NCCOCCOCCOCCOCCC(N)=O)NC(=O)[C@H](Cc2ccc(O)cc2)N(C)C(=O)[C@H](Cc2cccc(C(=O)O)c2)NC(=O)[C@H](CCCNC(=N)N)NC(=O)[C@H](CCC(=O)NCCOCCOCCOCCOCCOCCOCCOCCOC)NC(=O)[C@H]([C@@H](C)CC)NC1=O [compound 42]
107 nM	601 nM	CCC(CC)[C@@H]1NC(=O)[C@H](Cc2ccc(OCC(=O)O)cc2)NC(=O)[C@H](Cc2ccc(N)nc2)NC(=O)[C@H](CC(N)=O)NC(=O)[C@H](Cc2c[nH]c3ncccc23)NC(=O)[C@H](C(C)C)NC(=O)[C@H](Cc2cccc(Cl)c2)N(C)C(=O)[C@H](C(C)C)NC(=O)[C@H](C)NC(=O)CSC[C@@H](C(=O)NCCOCCOCCOCCOCCC(N)=O)NC(=O)[C@H](Cc2ccc(O)cc2)N(C)C(=O)[C@H](Cc2cccc(C(=O)O)c2)NC(=O)[C@H](CCCNC(=N)N)NC(=O)[C@H](CCC(=O)NCCOCCOCCOCCOCCOCCOCCOCCOC)NC(=O)[C@H]([C@@H](C)CC)NC1=O [compound 43] ({CH2CO}-AV[NMePhe(3-Cl)]V[Trp(7-aza)]N[3Pal(6-NH2)]Y(Carboxymethyl)[Nva(3-Et)]IE(NH(CH2CH2O)8Me)R[Phe(3-COOH)][NMeY]C[PEG4]-NH2; thioether N-15)
36.6 nM	339 nM	CCC(CC)[C@@H]1NC(=O)[C@H](Cc2ccc(OCC(=O)O)cc2)NC(=O)[C@H](Cc2ccc(N)nc2)NC(=O)[C@H](CC(N)=O)NC(=O)[C@H](Cc2c[nH]c3ncccc23)NC(=O)[C@H](C(C)C)NC(=O)[C@H](Cc2cccc(Cl)c2)N(C)C(=O)[C@H](C(C)C)NC(=O)[C@H](C)NC(=O)CSC[C@@H](C(=O)NCCOCCOCCOCCOCCC(N)=O)NC(=O)[C@H](Cc2ccc(O)cc2)N(C)C(=O)[C@H](Cc2cccc(C(=O)NCCOCCOCCOCCOCCC(=O)O)c2)NC(=O)[C@H](CCCNC(=N)N)NC(=O)[C@H](CCC(N)=O)NC(=O)[C@H]([C@@H](C)CC)NC1=O [compound 44] ({CH2CO}-AV[NMePhe(3-Cl)]V[Trp(7-aza)]N[3Pal(6-NH2)]Y(Carboxymethyl)[Nva(3-Et)]IQR[X1](PEG4)[NMeY]C[PEG4]-NH2; thioether N-15)
75.5 nM	869 nM	CCC(CC)[C@@H]1NC(=O)[C@H](Cc2ccc(OCC(=O)O)cc2)NC(=O)[C@H](Cc2ccc(N)nc2)NC(=O)[C@H](CC(N)=O)NC(=O)[C@H](Cc2c[nH]c3ncccc23)NC(=O)[C@H](C(C)C)NC(=O)[C@H](Cc2cccc(Cl)c2)N(C)C(=O)[C@H](C(C)C)NC(=O)[C@H](C)NC(=O)CSC[C@@H](C(=O)NCCOCCOCCOCCOCCC(N)=O)NC(=O)[C@H](Cc2ccc(C(=O)O)cc2)N(C)C(=O)[C@H](Cc2cccc(C(=O)O)c2)NC(=O)[C@H](CCCNC(=N)N)NC(=O)[C@H](CCC(N)=O)NC(=O)[C@H]([C@@H](C)CC)NC1=O [compound 45] ({CH2CO}-AV[NMePhe(3-Cl)]V[Trp(7-aza)]N[3Pal(6-NH2)]Y(Carboxymethyl)[Nva(3-Et)]IQR[Phe(3-COOH)][NMePhe(4-COOH)]C[PEG4]-NH2; thioether N-15)
116 nM	249 nM	CCC(CC)[C@@H]1NC(=O)[C@H](Cc2ccc(OCC(=O)O)cc2)NC(=O)[C@H](Cc2ccc(N)nc2)NC(=O)[C@H](CC(N)=O)NC(=O)[C@H](Cc2cn(CC(=O)O)c3ccccc23)NC(=O)[C@H](C(C)C)NC(=O)[C@H](Cc2cccc(Cl)c2)N(C)C(=O)[C@H](C(C)C)NC(=O)[C@H](C)NC(=O)CSC[C@@H](C(=O)NCCOCCOCCOCCOCCC(N)=O)NC(=O)[C@H](Cc2ccc(O)cc2)N(C)C(=O)[C@H](Cc2ccncc2)NC(=O)[C@H](CCCCN2CCOCC2)NC(=O)[C@H](CCC(N)=O)NC(=O)[C@H]([C@@H](C)CC)NC1=O [compound 47] ({CH2CO}-AV[NMePhe(3-Cl)]V[Trp(1-CH2COOH)]N[3Pal(6-NH2)]Y(Carboxymethyl)[Nva(3-Et)]IQ[Nle(6-morpholino)][4Pal][NMeY]C[PEG4]-NH2; thioether N-15)
111 nM	536 nM	CCC(CC)[C@@H]1NC(=O)[C@H](Cc2ccc(OCC(=O)O)cc2)NC(=O)[C@H](Cc2ccc(N)nc2)NC(=O)[C@H](CC(N)=O)NC(=O)[C@H](Cc2cn(CC(=O)O)c3ccccc23)NC(=O)[C@H](C(C)C)NC(=O)[C@H](Cc2cccc(Cl)c2)N(C)C(=O)[C@H](C(C)C)NC(=O)[C@H](C)NC(=O)CSC[C@@H](C(=O)NCCOCCOCCOCCOCCC(N)=O)NC(=O)[C@H](Cc2ccc(O)cc2)N(C)C(=O)[C@H](Cc2ccncc2)NC(=O)[C@H](CCCNC(=N)N)NC(=O)[C@H](CCC(=O)NCCOCCOCCOCCOCCOCCOCCOCCOC)NC(=O)[C@H]([C@@H](C)CC)NC1=O [compound 48] ({CH2CO}-AV[NMePhe(3-Cl)]V[Trp(1-CH2COOH)]N[3Pal(6-NH2)]Y(Carboxymethyl)[Nva(3-Et)]IE(NH(CH2CH2O)8Me)R[4Pal][NMeY]C[PEG4]-NH2; thioether N-15)
